{
  "source": "patent US6900200B2",
  "about": "“Tricyclic hydroxy carboxamides and derivatives thereof tocolytic oxytocin receptor antagonists” (Wyeth, priority 2001, dated 2005)",
  "molecular_target": "T1, human vasopressin V1a receptor subtype (Homo sapiens, UniProt P37288)",
  "T1 construct": "host or cells: CHO cells; pZeoSV vector for the Thibonnier line",
  "T1 sequence (P37288 whole entry)": "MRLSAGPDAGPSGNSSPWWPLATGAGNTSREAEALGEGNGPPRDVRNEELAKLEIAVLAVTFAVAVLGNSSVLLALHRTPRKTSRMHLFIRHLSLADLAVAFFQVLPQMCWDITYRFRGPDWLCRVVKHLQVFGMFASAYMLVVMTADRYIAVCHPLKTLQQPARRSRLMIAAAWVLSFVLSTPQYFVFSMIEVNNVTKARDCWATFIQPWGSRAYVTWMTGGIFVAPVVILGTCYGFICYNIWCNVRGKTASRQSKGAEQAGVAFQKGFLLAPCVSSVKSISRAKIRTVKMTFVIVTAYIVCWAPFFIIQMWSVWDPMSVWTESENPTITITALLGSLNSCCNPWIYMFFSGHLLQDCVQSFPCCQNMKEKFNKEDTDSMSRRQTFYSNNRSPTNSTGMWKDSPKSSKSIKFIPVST",
  "experiment": "Vasopressin binding in CHO cell membranes expressing human vasopressin V1a subtype receptors ([3H]Manning ligand radioligand binding)",
  "conditions": "for IC50: value printed in parentheses; for inhibition at 0.1 µM: @ 100 nM",
  "excerpt": "Vasopressin Binding in Chinese Hamster Ovary Cell Membranes Expressing Human Vasopressin V1a Subtype Receptors\nChinese hamster ovary cells (CHO cells) stably transfected with the human vasopressin V1a subtype receptors were either obtained from BioSignal Inc., 1744 rue Williams, Montreal, Quebec, Canada or obtained from M. Thibonnier, Case Western Reserve University School of Medicine, Cleveland, Ohio.\nA. Passaging and Amplification of Cells\nCHO cells transfected with the human vasopressin V1a subtype receptors obtained from M. Thibonnier (pZeoSV vector) are allowed to grow to confluency (approx. >90%) in T-150 flasks under sterile conditions, in a cell culture medium of F-12 Nutrient Mixture (HAM) with L-glutamine (Gibco Cat. #11765-054) containing 15 mM HEPES (Gibco Cat. #15630-080), 1% antibiotic/antimycotic (add 5 mL 100×, Gibco Cat. #15240-062 per 500 mL F-12), 250 μg/mL Zeocin (add 1.25 mL of 100 mg/mL Invitrogen R-250-01 per 500 mL F-12) and 10% Fetal Bovine Serum (Qualified, heat inactivated, Gibco Cat. #16140-063). The medium is removed by aspiration and the cells are washed with 10 mL of Hank's Balanced Salt solution (Gibco Cat. #14175-095). The salt solution is removed by aspiration and the cells are trypsinized with 5 mL of trypsin-EDTA (0.05% trypsin, 0.53 mM EDTA-4Na, Gibco Cat. #25300-070) for 1 min. The trypsin is removed by aspiration and the cells dislodged by tapping. Cell Culture medium (e.g. 30 mL for 1:30 split) is immediately added and mixed well to inactivate trypsin. 1 mL of detached cells is added to new culture flasks containing fresh cell culture medium (e.g., into 25 mL per T-150 flask), and mixed gently. The cells are incubated at 37° C. in 5% CO2. The medium is changed at 3 to 4 days interval (or as appropriate). The cells grow to confluency (approx. >75%-95%) within 7-8 days. All steps are done under sterile conditions.\nThe cells are washed twice gently with Hank's Balanced Salt solution (e.g,. use 10 mL per T-150 flask). The excess is removed and the cells are bathed for 15-30 min. in an enzyme-free Cell Dissociation Buffer (e.g. use 8 mL Hank's Based, Gibco Cat. #13150-016 per T-150 flask) until the cells are loosened. The contents are transferred to centrifuge tubes (50 mL) kept in an ice bath. All subsequent steps are done at 4° C. The tubes are centrifuged at 300×g for 15 min (1380 rpm on SORVAL, Model RT6000D, using the rotor for 50 mL tubes). The supernatant is discarded and the cells suspended in homogenizing buffer(10 mM Tris-HCl containing 0.25 M sucrose and 1 mM EDTA, pH 7.4) ensuring that the volume of the buffer is about ten times the volume of the cell pellet. The cells are pooled into a centrifuge tube (50 mL) and homogenized with Polytron at setting 6 for 10 sec. The homogenate is transferred into a Potter-Elvjehm homogenizer and homogenized with 3 strokes. The homogenate is centrifuged at 1500×g for 10 min at 4° C. (3100 rpm using SORVAL, model RT6000D, using the rotor for 50 mL tubes). The pellet is discarded. The supernatant is centrifuged at 100,000×g for 60 min. at 4° C. (Beckman L8-80M ultracentrifuge; spin at 37,500 rpm with rotor type 70 Ti for 50 mL tubes; 38,000 rpm with type 80Ti for 15 mL tubes; or 35,800 rpm with rotor type 45Ti). The supernantant is discarded and the pellet suspended in 3 to 4 mL of Tris buffer (50 mM TRIS—HCl, pH 7.4). The protein content is estimated by the Bradford or Lowry method. The volume of the membrane suspension is adjusted with the membrane buffer (50 mM Tris-HCl containing 0.1% BSA and 0.1 mM PMSF) to give 3.0 mg/mL (or as appropriate) of protein. The membranes are aliquoted and stored at −70° C.\nC. Radioligand Binding Assay […]",
  "data": [
    {"smiles": "Cc1cc(C(=O)N2Cc3ccc(C(=O)N(C)C[C@@H]4OC(=O)O[C@H]4[C@H](O)[C@H]4COC(=O)O4)n3Cc3ccccc32)ccc1-c1ccccc1C(F)(F)F", "note": "[Example 12, N-[((4S,5S)-5-{(R)-Hydroxy[(4R)-2-oxo-1,3-dioxolan-4-yl]methyl}-2-oxo-1,3-dioxolan-4-yl)methyl]-N-methyl-10-{[2-methyl-2′-(trifluoromethyl)[1,1′-biphenyl]-4-yl]carbonyl}-10,11-dihydro-5H-pyrrolo[2,1-c]benzodiazepine-3-carboxamide]", "values": [
      {"measurement": "IC50", "value": 1.61, "unit": "µM"}
    ]},
    {"smiles": "COc1cccc(-c2ccc(C(=O)N3Cc4ccc(C(=O)N5CCN(CCO)CC5)n4Cc4ccccc43)cc2C)c1", "note": "[Example 44, [4-(2-Hydroxyethyl)-1-piperazinyl]{10-[(3′-methoxy-2-methyl[1,1′-biphenyl]-4yl)carbonyl]-10,11-dihydro-5H-pyrrolo[2,1-c][1,4]benzodiazepin-3-yl}methanone]", "values": [
      {"measurement": "inhibition at 0.1 µM", "value": 17, "unit": "%"}
    ]},
    {"smiles": "Cc1cc(C(=O)N2Cc3ccc(C(=O)N4CCN(C[C@@H](O)CO)CC4)n3Cc3ccccc32)ccc1-c1ccccc1C(F)(F)F", "note": "[Example 6, (2R)-3-{4-[(10-{[2-Methyl-2′-trifluoromethyl-[1,1′-biphenyl]-4-yl]carbonyl}-10,11-dihydro-5H-pyrrolo[2,1-c][1,4]benzodiazepin-3-yl)carbonyl]piperazin-1-yl}propane-1,2-diol]", "values": [
      {"measurement": "IC50", "value": 2.41, "unit": "µM"}
    ]},
    {"smiles": "COc1cc(C(=O)N2Cc3ccc(C(=O)N4CCN(CCO)CC4)n3Cc3ccccc32)ccc1-c1cccc2ccccc12", "note": "[Example 41, [4-(2-Hydroxyethyl)-1-piperazinyl]{10-[3-methoxy-4-(1-naphthyl)benzoyl]-10,11-dihydro-5H-pyrrolo[2,1-c][1,4]benzodiazepin-3-yl}methanone]", "values": [
      {"measurement": "inhibition at 0.1 µM", "value": 12, "unit": "%"}
    ]}
  ]
}
